This note sets out measurements from patent US12077555B2, “STAT degraders and uses thereof” (Kymera Therapeutics, Inc., priority 2019, dated 2024).

The test concerns the target STAT3 (Homo sapiens, UniProt P40763). Briefly: STAT3 HiBiT degradation assay in transfected A549 cells. Format: cell-based. Set-up: expressed in transfected cells; host or cells: A549. Put shortly: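 Degradation read as HiBiT-tagged STAT3 luminescence (Nano-Glo lytic reagent, 10 min, room temperature) following 24 h compound treatment of transfected A549 cells at 3-fold, 10 points. Percent remaining signal computed against controls and fitted with a four-parameter logistic; DC50 reported as letter bins (A <0.01 to D >1.0 µM).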

The mark [1] stands for this setting: read-out: STAT3 HiBiT A549 degradation 24 h: Average external-Abs DC50; A549, 24 h.
Setting [2] is: A549, 24 h; read-out: STAT3 HiBiT A549 degradation 24 h: Average external-Abs DC50.

Read-outs that look alike come from different tables or passages of the source.

STAT3, sequence (P40763 whole entry): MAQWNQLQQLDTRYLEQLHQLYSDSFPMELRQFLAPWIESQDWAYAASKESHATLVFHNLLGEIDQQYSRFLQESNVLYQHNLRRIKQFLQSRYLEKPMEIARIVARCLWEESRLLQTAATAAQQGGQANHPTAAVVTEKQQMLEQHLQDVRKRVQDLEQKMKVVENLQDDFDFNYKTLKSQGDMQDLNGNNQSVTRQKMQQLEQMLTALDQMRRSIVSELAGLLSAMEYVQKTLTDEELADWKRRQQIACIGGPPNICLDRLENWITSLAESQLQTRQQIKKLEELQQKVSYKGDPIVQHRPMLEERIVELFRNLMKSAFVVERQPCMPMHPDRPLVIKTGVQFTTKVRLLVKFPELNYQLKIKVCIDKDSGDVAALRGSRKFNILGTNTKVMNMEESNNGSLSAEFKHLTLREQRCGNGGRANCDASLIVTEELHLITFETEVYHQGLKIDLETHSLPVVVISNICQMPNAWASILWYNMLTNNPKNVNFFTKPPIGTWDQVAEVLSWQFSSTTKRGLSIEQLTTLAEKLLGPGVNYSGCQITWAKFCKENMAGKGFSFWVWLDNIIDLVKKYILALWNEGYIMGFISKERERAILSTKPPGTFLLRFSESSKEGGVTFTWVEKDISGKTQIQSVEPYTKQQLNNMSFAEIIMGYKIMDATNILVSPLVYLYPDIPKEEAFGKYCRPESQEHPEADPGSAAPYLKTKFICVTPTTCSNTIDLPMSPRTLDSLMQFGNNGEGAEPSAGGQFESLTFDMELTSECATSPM

By DC50 is commonly meant the concentration giving 50% degradation. `Cc1ncsc1-c1ccc(CNC(=O)[C@@H]2C[C@@H](O)CN2C(=O)[C@@H](NC(=O)CCCCc2ccc(CO[C@H](C)[C@H](CCC(N)=O)NC(=O)[C@@H]3[C@@H]4C[C@@H]4CN3C(=O)[C@H](CC(C)C)NC(=O)c3cc4cc(C(=O)P(=O)(O)O)ccc4[nH]3)cc2)C(C)(C)C)cc1` [Compound I-137, diammonium 2-[[(2S)-1-[(1R,2S,5S)-2-[[(3S,4R)-1-carbamoyl-4-[[4-(4-[[(2S)-1-[(2S,4R)-4-hydroxy-2-([[4-(4-methyl-1,3-thiazol-5-yl)phenyl]methyl]carbamoyl)pyrrolidin-1-yl]-3,3-dimethyl-1-oxobutan-2-yl]carbamoyl]butyl)phenyl]methoxy]pentan-3-yl]carbamoyl]-3-azabicyclo[3.1.0]hexan-3-yl]-4-methyl-1-oxopentan-2-yl]carbamoyl]-1H-indole-5-carbonylphosphonate]: the DC50 under setting [1] fell in the range of 10 to 100 nM. Regarding `Cc1ncsc1-c1ccc([C@H](C)NC(=O)[C@@H]2C[C@@H](O)CN2C(=O)[C@@H](NC(=O)CCCCCc2cccc(NC(=O)[C@H](CCC(N)=O)NC(=O)[C@@H]3Cc4cccc5c4N3C(=O)[C@@H](NC(=O)c3cc4cc(C(=O)P(=O)(O)O)ccc4[nH]3)CC5)c2C)C(C)(C)C)cc1` [Compound I-259], the DC50 under setting [2] is 100 to 1000 nM. On the same count and under the same terms, under `Cc1ncsc1-c1ccc(CNC(=O)[C@@H]2C[C@@H](O)CC2C(=O)[C@@H](NC(=O)CCCCC/C=C\COC[C@H](CCC(N)=O)NC(=O)[C@@H]2Cc3cccc4c3N2C(=O)[C@@H](NC(=O)c2cc3cc(C(=O)P(=O)(O)O)ccc3[nH]2)CC4)C(C)(C)C)cc1` (some centres unmarked) [Compound I-171] stands 100 to 1000 nM; under `Cc1ncsc1-c1ccc(CNC(=O)C2C[C@@H](O)CN2C(=O)[C@@H](NC(=O)CC2CC(c3ccc(CO[C@H](C)[C@H](CCC(N)=O)NC(=O)[C@@H]4Cc5cccc6c5N4C(=O)[C@@H](NC(=O)c4cc5cc(C(=O)P(=O)(O)O)ccc5[nH]4)CC6)cc3)C2)C(C)(C)C)cc1` (some centres unmarked) [Compound I-176], over 1000 nM. The same measure, in the same setting: then `Cc1ncsc1-c1ccc([C@H](C)NC(=O)[C@@H]2C[C@@H](O)CN2C(=O)[C@@H](NC(=O)CCCCc2cccc(NC(=O)C(CCC(N)=O)NC(=O)[C@@H]3Cc4cccc5c4N3C(=O)[C@@H](NC(=O)c3cc4cc(C(=O)P(=O)(O)O)ccc4[nH]3)CC5)c2Cl)C(C)(C)C)cc1` (stereo partly drawn) [Compound I-246, diammonium 2-[[(2S,11S)-2-[(3-carbamoyl-1-[[2-chloro-3-(4-[[(2S)-1-[(2S,4R)-4-hydroxy-2-[[(1S)-1-[4-(4-methyl-1,3-thiazol-5-yl)phenyl]ethyl]carbamoyl]pyrrolidin-1-yl]-3,3-dimethyl-1-oxobutan-2-yl]carbamoyl]butyl)phenyl]carbamoyl]propyl)carbamoyl]-12-oxo-1-azatricyclo[6.4.1.0^[4,13]]trideca-4(13),5,7-trien-11-yl]carbamoyl]-1H-indole-5-carbonylphosphonate], with 10 to 100 nM.

As to `Cn1c(=O)n(C2CCC(=O)NC2=O)c2ccc(C[C@H]3CC[C@H](CC(=O)N4CC[C@H]5CC[C@@H](C(=O)N[C@@H](CCC(N)=O)C(=O)NC(c6ccccc6)c6ccccc6)N5C(=O)[C@@H](NC(=O)c5cc6cc(C(=O)P(=O)(O)O)ccc6[nH]5)C4)CC3)cc21` (stereo partly drawn) [Compound I-166, 2-[[(5S,8S,10aR)-8-[[(1S)-3-carbamoyl-1-(diphenylmethylcarbamoyl)propyl]carbamoyl]-6-oxo-3-[2-[(1r, 4r)-4-[[1-(2,6-dioxopiperidin-3-yl)-3-methyl-2-oxo-1,3-benzodiazol-5-yl]methyl]cyclohexyl]acetyl]-octahydropyrrolo[1,2-a][1,5]diazocin-5-yl]carbamoyl]-1H-indole-5-carbonylphosphonic acid], the DC50 under setting [2] was 10 to 100 nM. Same read-out and setting: then `Cn1c(=O)n(C2CCC(=O)NC2=O)c2ccc(CC3CCN(CC(=O)N4CC[C@H]5CC[C@@H](C(=O)N[C@@H](CCC(N)=O)C(=O)NC(c6ccccc6)c6ccccc6)N5C(=O)[C@@H](NC(=O)c5cc6cc(C(=O)P(=O)(O)O)ccc6[nH]5)C4)CC3)cc21` (stereo partly drawn) [Compound I-158, 2-[[(5S,8S,10aR)-8-[[(1S)-3-carbamoyl-1-(diphenylmethylcarbamoyl)propyl]carbamoyl]-3-[2-(4-[[1-(2,6-dioxopiperidin-3-yl)-3-methyl-2-oxo-1,3-benzodiazol-5-yl]methyl]piperidin-1-yl)acetyl]-6-oxo-octahydropyrrolo[1,2-a][1,5]diazocin-5-yl]carbamoyl]-1H-indole-5-carbonylphosphonic acid], with over 1000 nM. `Cc1ncsc1-c1ccc([C@H](C)NC(=O)[C@@H]2C[C@@H](O)CN2C(=O)[C@@H](NC(=O)CCCCc2cccc(OC[C@H](CCC(N)=O)NC(=O)[C@@H]3CCCN3C(=O)[C@H](CC(C)C)NC(=O)c3cc4cc(C(=O)P(=O)(O)O)ccc4[nH]3)c2F)C(C)(C)C)cc1` [Compound I-276, diammonium 2-[[(2S)-1-[(2S)-2-[[(2S)-4-carbamoyl-1-[2-fluoro-3-(4-[[(2S)-1-[(2S,4R)-4-hydroxy-2-[[(1S)-1-[4-(4-methyl-1,3-thiazol-5-yl)phenyl]ethyl]carbamoyl]pyrrolidin-1-yl]-3,3-dimethyl-1-oxobutan-2-yl]carbamoyl]butyl)phenoxy]butan-2-yl]carbamoyl]pyrrolidin-1-yl]-4-methyl-1-oxopentan-2-yl]carbamoyl]-1H-indole-5-carbonylphosphonate]: the half-maximal degradation concentration (DC50) under setting [1] was under 10 nM.

As for `Cn1c(=O)n(C2CCC(=O)NC2=O)c2ccc(CC[C@H]3CC[C@@H](C(=O)N4CC[C@H]5CC[C@@H](C(=O)N[C@@H](CCC(N)=O)C(=O)NC(c6ccccc6)c6ccccc6)N5C(=O)[C@@H](NC(=O)c5cc6cc(C(=O)P(=O)(O)O)ccc6[nH]5)C4)CC3)cc21` (some centres unmarked) [Compound I-202], the DC50 under setting [2] lay within 10 to 100 nM. `Cc1ncsc1-c1ccc([C@H](C)NC(=O)[C@@H]2C[C@@H](O)CN2C(=O)[C@@H](NC(=O)CCCCCc2cc(Cl)cc(OC[C@H](CCC(N)=O)NC(=O)[C@@H]3Cc4cccc5c4N3C(=O)[C@@H](NC(=O)c3cc4cc(C(=O)P(=O)(O)O)ccc4[nH]3)CC5)c2F)C(C)(C)C)cc1` [Compound I-244, 2-[[(2S,11S)-2-[[(2S)-4-carbamoyl-1-[5-chloro-2-fluoro-3-(5-[[(2S)-1-[(2S,4R)-4-hydroxy-2-[[(1S)-1-[4-(4-methyl-1,3-thiazol-5-yl)phenyl]ethyl]carbamoyl]pyrrolidin-1-yl]-3,3-dimethyl-1-oxobutan-2-yl]carbamoyl]pentyl)phenoxy]butan-2-yl]carbamoyl]-12-oxo-1-azatricyclo[6.4.1.0^[4,13]]trideca-4(13),5,7-trien-11-yl]carbamoyl]-1H-indole-5-carbonylphosphonic acid]: under setting [2], the DC50 is under 10 nM. Regarding `Cc1ncsc1-c1ccc([C@H](C)NC(=O)[C@@H]2C[C@@H](O)CN2C(=O)[C@@H](NC(=O)CCCCc2cccc(OC[C@H](CCC(N)=O)NC(=O)[C@@H]3Cc4cccc5c4N3C(=O)[C@@H](NC(=O)c3cc4cc(C(=O)P(=O)(O)O)ccc4[nH]3)CC5)c2Cl)C(C)(C)C)cc1` [Compound I-243], the DC50 under setting [2] is under 10 nM.

On to `Cc1ccc(OC[C@H](CCC(N)=O)NC(=O)[C@@H]2Cc3cccc4c3N2C(=O)[C@@H](NC(=O)c2cc3cc(C(=O)P(=O)(O)O)ccc3[nH]2)CC4)c(F)c1CCCCCC(=O)N[C@H](C(=O)N1C[C@H](O)C[C@H]1C(=O)N[C@@H](C)c1ccc(-c2scnc2C)cc1)C(C)(C)C` [Compound I-251], for which the DC50 under setting [2] was under 10 nM. Same read-out and setting: under `Cn1c(=O)n(C2CCC(=O)NC2=O)c2ccc(C[C@H]3CC[C@H](CCC(=O)N4CC[C@H]5CC[C@@H](C(=O)N[C@@H](CCC(N)=O)C(=O)NC(c6ccccc6)c6ccccc6)N5C(=O)[C@@H](NC(=O)c5cc6cc(C(=O)P(=O)(O)O)ccc6[nH]5)C4)CC3)cc21` (some centres unmarked) [Compound I-167] stands 100 to 1000 nM.

`CN1C(=O)CCC(N2Cc3c(C#CCCCCCC(=O)N4CC[C@H]5CC[C@@H](C(=O)N[C@@H](CCC(N)=O)C(=O)NC(c6ccccc6)c6ccccc6)N5C(=O)[C@@H](NC(=O)c5cc6cc(C(=O)P(=O)(O)O)ccc6[nH]5)C4)cccc3C2=O)C1=O` (stereo in doubt) [Compound I-120, diammonium 2-[[(5S,8S,10aR)-8-[[(1S)-3-carbamoyl-1-(diphenylmethylcarbamoyl)propyl]carbamoyl]-3-[8-[2-(1-methyl-2,6-dioxopiperidin-3-yl)-1-oxo-3H-isoindol-4-yl]oct-7-ynoyl]-6-oxo-octahydropyrrolo[1,2-a][1,5]diazocin-5-yl]carbamoyl]-1H-indole-5-carbonylphosphonate]: the DC50 under setting [1] was over 1000 nM.

Regarding `Cn1c(=O)n(C2CCC(=O)NC2=O)c2ccc(CCCCCCC(=O)N3CC[C@H]4CC[C@@H](C(=O)N[C@H](CCC(N)=O)C(=O)NC(c5ccccc5)c5ccccc5)N4C(=O)[C@@H](NC(=O)c4cc5cc(C(=O)P(=O)(O)O)ccc5[nH]4)C3)cc21` (stereo partly drawn) [Compound I-181, 2-[[(5S,8S,10aR)-8-[[(1R)-3-carbamoyl-1-(diphenylmethylcarbamoyl)propyl]carbamoyl]-3-[7-[1-(2,6-dioxopiperidin-3-yl)-3-methyl-2-oxo-1,3-benzodiazol-5-yl]heptanoyl]-6-oxo-octahydropyrrolo[1,2-a][1,5]diazocin-5-yl]carbamoyl]-1H-indole-5-carbonylphosphonic acid], under setting [2], the DC50 was over 1000 nM. On the same count and under the same terms, then `Cc1ncsc1-c1ccc([C@H](C)NC(=O)[C@@H]2C[C@@H](O)CN2C(=O)[C@@H](NC(=O)CCCc2cccc(OC[C@H](CCC(N)=O)NC(=O)[C@@H]3CCCN3C(=O)[C@H](CC(C)C)NC(=O)c3cc4cc(C(=O)P(=O)(O)O)ccc4[nH]3)c2Cl)C(C)(C)C)cc1` [Compound I-240], with 10 to 100 nM; and `Cc1ncsc1-c1ccc(C2(NC(=O)[C@@H]3C[C@@H](O)CN3C(=O)[C@@H](NC(=O)CCCc3cccc(OC[C@H](CCC(N)=O)NC(=O)[C@@H]4Cc5cccc6c5N4C(=O)[C@@H](NC(=O)c4cc5cc(C(=O)P(=O)(O)O)ccc5[nH]4)CC6)c3Cl)C(C)(C)C)CC2)cc1` [Compound I-283], with 10 to 100 nM.
